What was measured:
[1] = Elevated plus maze, betulinic acid vs structurally related compounds (Example 11); format: in vivo
Text: This example compares the anxiolytic activity of betulinic acid and some other structurally related compounds. Results are illustrated in FIG. 7.

Sprague Dawley rats = test: Locomotor activity after chronic administration; format: in vivo, rat; settings: chronic 0.5 mg/kg daily orally, one night 5 p.m. to 7 a.m. (FIG. 11)
Protocol: Test animals and drug treatments were as in Example 14. Locomotor activity was recorded for one night (5 p.m. to 7 a.m. the following morning) in the control as well as in the betulinic acid and methyl ester of betulinic acid exposed groups. Locomotor activity was monitored using infrared sensors located on the roof of the animals' cage. Eight independent sensors monitored activity of animals according to the number of quadrants traversed.

[2] = Weight gain over chronic treatment; format: in vivo, rat; settings: rats, chronic 0.5 mg/kg daily orally (FIG. 12)
Sprague-Dawley rats = test: Rat social interaction paradigm; format: in vivo; settings: 0.5 mg/kg i.p.
Text: The rat social interaction paradigm takes advantage of rats' natural behaviour in novel situations. The more ‘anxious’ the animals are, the less likely they are engage in social interaction with the cohort. Anxiolytic drugs typically increase the amount of time rodents spend socially interacting with one another. (Pile, S. E., (1980). The use of social interaction as a method for detecting anxiolytic activity of chlor-diazepoxide-like drugs. In Current Protocols in Neuroscience (pp. 8.3.3-8.3.4), John-Wiley & Sons).
The social-interaction (SI) test arena constituted of a 60×60 cm white Plexiglas floor, enclosed by 35-cm high walls of the same material. The arena was surrounded by black curtain, and a closed circuit camera was positioned above the setup, to feed live video signals to the experimenter seated in a separate room, for behavioral assessment and recording.
Each rat was placed alone in the SI box for 7.5 min daily for 2 days, in order to familiarize the animals with the test environment. Animals were paired according to their body weights (less than 10 g difference) and each pair was randomly assigned to one of the treatment groups. Rats received either betulinic acid 0.5 mg/kg i.p., betulinic acid methyl ester (methyl betulinate) 0.5 mg/kg i.p., or peanut oil only (control). Drugs were injected (i.p.) 60 min prior to testing. Tests were carried out at three intervals, 1 h, 2.5 h and 4 h after injection. Each pair was tested at the 1-h interval, then new pairs from within the same drug group were formed for the 2.5-h interval and then again at the 4-h interval (new pairs were formed for each test interval, to control for the potential confounding effect partner familiarity). […] The behaviors scored included the amount of time the pairs spent interacting together (sniffing, grooming and chasing) as well as the number of times the animals initiated contact.

Solubility = format: physicochemical; settings: in water and in methanol

CC1(C)CC[C@]2(C(=O)O)CC[C@]3(C)C(=CC[C@@H]4[C@@]5(C)CC[C@H](O)C(C)(C)[C@@H]5CC[C@]43C)[C@@H]2C1 [oleanolic acid]
anxiolytic activity on the elevated plus maze paradigm ([1]; 0.5 mg/kg): neither beta-amyrin (5 mg/kg) nor oleanolic acid (0.5 mg/kg), two compounds structurally related to betulinic acid, displayed any anxiolytic activity

CC1(C)CC[C@]2(C)CC[C@]3(C)C(=CC[C@@H]4[C@@]5(C)CC[C@H](O)C(C)(C)[C@@H]5CC[C@]43C)[C@@H]2C1 [beta-amyrin]
anxiolytic activity on the elevated plus maze paradigm ([1]; 5 mg/kg (FIG. 7)): neither beta-amyrin (5 mg/kg) nor oleanolic acid (0.5 mg/kg), two compounds structurally related to betulinic acid, displayed any anxiolytic activity

C=C(C)[C@@H]1CC[C@]2(C(=O)OC)CC[C@]3(C)[C@H](CC[C@@H]4[C@@]5(C)CC[C@H](O)C(C)(C)[C@@H]5CC[C@]43C)[C@@H]12 [betulinic acid methyl ester, Methyl betulinate]
adverse effect on locomotor activity or pattern (Sprague Dawley rats): neither betulinic acid nor the methyl ester of betulinic acid had an adverse effect on locomotor activity or pattern | effect of chronic drug treatment on weight gain [2]: did not seem to affect weight gain in a significant manner | frequency of initiated contact (Sprague-Dawley rats): not significant | amount of social interaction (interaction time) compared to the control group (Sprague-Dawley rats; data collapsed across 1 h, 2.5 h and 4 h (FIG. 8)): significantly increased the amount of social interaction | increase of social interaction compared to betulinic acid (Sprague-Dawley rats; p<0.05): significantly more effective at increasing social interaction than betulinic acid

C=C(C)C1CCC2(C(=O)[O-])CCC3(C)C(CCC4C5(C)CCC(O)C(C)(C)C5CCC43C)C12.[Na+] (centres unmarked) [sodium salt of betulinic acid]
solubility relative to pure betulinic acid (Solubility): greater in water and in methanol than pure betulinic acid

From patent publication US20130065868A1, “ANXIOYTIC MARCGRAVIACEAE COMPOSITIONS CONTAINING BETULINIC ACID, BETULINIC ACID DERIVATIVES, AND METHODS” (UNIVERSITY OF OTTAWA, priority 2002, published 2013)
